Source: PubChem BioAssay (NCI)
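These data come from cells grown in 96-well plates and exposed to compound for 48 hours at five concentrations. At the TGI there is no net growth.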

What was measured:
Experiment in all cases: NCI-60 cell line screen, 48 h
[1] = test system: K-562 leukemia
[2] = test system: SW-620 colon
[3] = test system: U251 CNS
[4] = test system: SK-OV-3 ovarian
[5] = test system: HL-60(TB) leukemia
[6] = test system: BT-549 breast
[7] = test system: KM12 colon
[8] = test system: SK-MEL-5 melanoma
[9] = test system: NCI/ADR-RES ovarian
[10] = test system: NCI-H226 lung
[11] = test system: M14 melanoma
[12] = test system: HCT-15 colon
[13] = test system: T-47D breast
[14] = test system: CAKI-1 renal
[15] = test system: SNB-19 CNS
[16] = test system: HOP-92 NSCLC
[17] = test system: A549 NSCLC
[18] = test system: SF-295 CNS
[19] = test system: HCT-116 colon
[20] = test system: DU-145 prostate
[21] = test system: MOLT-4 leukemia
[22] = test system: HCC-2998 colon
[23] = test system: SK-MEL-28 melanoma
[24] = test system: IGROV1 ovarian
[25] = test system: OVCAR-4 ovarian
[26] = test system: MALME-3M melanoma
[27] = test system: HS 578T breast
[28] = test system: NCI-H460 lung
[29] = test system: NCI-H23 lung
[30] = test system: MDA-N
[31] = test system: EKVX NSCLC
[32] = test system: COLO 205 colon
[33] = test system: RXF 393 renal
[34] = test system: PC-3 prostate
[35] = test system: UACC-257 melanoma
[36] = test system: SK-MEL-2 melanoma
[37] = test system: UO-31 renal
[38] = test system: SF-539 CNS
[39] = test system: SN12C renal
[40] = test system: MDA-MB-435
[41] = test system: RPMI-8226 leukemia
[42] = test system: NCI-H522 lung
[43] = test system: MCF7 breast
[44] = test system: A498 renal
[45] = test system: HOP-62 NSCLC
[46] = test system: UACC-62 melanoma
[47] = test system: SF-268 CNS
[48] = test system: SNB-75 CNS
[49] = test system: CCRF-CEM leukemia
[50] = test system: TK-10 renal
[51] = test system: 786-0 renal
[52] = test system: OVCAR-8 ovarian
[53] = test system: LOX IMVI melanoma
[54] = test system: ACHN renal
[55] = test system: OVCAR-3 ovarian
[56] = test system: SR leukemia
[57] = test system: HT29 colon
[58] = test system: OVCAR-5 ovarian
[59] = test system: MDA-MB-231 breast

Work on `O=C1NC(Nc2ccccc2)=N/C1=C\c1c(Cl)cccc1Cl` yielded a TGI [1] greater than 100 µM, a TGI [2] greater than 100 µM and a TGI [3] of 37.6 µM. The TGI [4] was 49.7 µM, the TGI [5] was greater than 100 µM and the TGI [6] was greater than 100 µM. It also gave a TGI [7] greater than 100 µM, a TGI [8] of 37.6 µM and a TGI [9] greater than 100 µM. For the same compound, the TGI [10] was 41.6 µM, the TGI [11] was 83.5 µM and the TGI [12] was greater than 100 µM. For the same compound, the TGI [13] was greater than 100 µM, the TGI [14] was greater than 100 µM and the TGI [15] was greater than 100 µM. The TGI [16] was 39.9 µM, the TGI [17] was 52.1 µM and the TGI [18] was greater than 100 µM. The TGI [19] was greater than 100 µM, the TGI [20] was 76.3 µM and the TGI [21] was 64.1 µM. It also gave a TGI [22] of 58.5 µM, a TGI [23] greater than 100 µM and a TGI [24] of 62.4 µM. The TGI [25] was 25.5 µM, the TGI [26] was 56.5 µM and the TGI [27] was 95 µM. The TGI [28] was greater than 100 µM, the TGI [29] was greater than 100 µM and the TGI [30] was 60.9 µM. The TGI [31] was 47.3 µM, the TGI [32] was greater than 100 µM and the TGI [33] was 45.3 µM. It also gave a TGI [34] of 39.6 µM, a TGI [35] of 78.1 µM and a TGI [36] of 49 µM. For the same compound, the TGI [37] was 18.4 µM, the TGI [38] was 53.2 µM and the TGI [39] was 46.6 µM. The TGI [40] was greater than 100 µM, the TGI [41] was greater than 100 µM and the TGI [42] was greater than 100 µM. It also gave a TGI [43] of 56 µM, a TGI [44] greater than 100 µM and a TGI [45] greater than 100 µM. It also gave a TGI [46] greater than 100 µM, a TGI [47] greater than 100 µM and a TGI [48] of 42.3 µM. For the same compound, the TGI [49] was 54.1 µM, the TGI [50] was 47.2 µM and the TGI [51] was 29.6 µM. It also gave a TGI [52] of 65.1 µM, a TGI [53] greater than 100 µM and a TGI [54] greater than 100 µM. For the same compound, the TGI [55] was greater than 100 µM, the TGI [56] was greater than 100 µM and the TGI [57] was greater than 100 µM. The TGI [58] was greater than 100 µM.

With `Nc1ccccc1C#CC(=O)c1cccc(C(F)(F)F)c1` the TGI [1] was greater than 100 µM, the TGI [2] was 5 µM and the TGI [3] was 3.95 µM. The TGI [4] was 28.6 µM, the TGI [5] was 41.1 µM and the TGI [7] was 82.1 µM. It also gave a TGI [8] of 6.17 µM, a TGI [9] of 47.3 µM and a TGI [10] of 18 µM. The TGI [11] was 5.1 µM, the TGI [13] was greater than 100 µM and the TGI [14] was 13.5 µM. The TGI [15] was 27.6 µM, the TGI [16] was 4.84 µM and the TGI [17] was 33.6 µM. For the same compound, the TGI [18] was 34.1 µM, the TGI [19] was greater than 100 µM and the TGI [20] was 37.1 µM. The TGI [24] was 1.99 µM, the TGI [25] was 5.51 µM and the TGI [26] was 22.1 µM. It also gave a TGI [27] of 6.47 µM, a TGI [28] of 47.6 µM and a TGI [29] of 4.71 µM. The TGI [30] was 10.6 µM, the TGI [31] was 38 µM and the TGI [32] was 3.87 µM. It also gave a TGI [33] of 5.07 µM, a TGI [34] of 12 µM and a TGI [35] of 29.5 µM. It also gave a TGI [36] of 2.54 µM, a TGI [37] of 2.55 µM and a TGI [38] of 10.9 µM. For the same compound, the TGI [39] was 4.81 µM, the TGI [40] was 6.65 µM and the TGI [41] was 5.4 µM. For the same compound, the TGI [42] was 2.36 µM, the TGI [43] was 9.91 µM and the TGI [44] was 32.5 µM. For the same compound, the TGI [45] was 27.9 µM, the TGI [46] was 3.85 µM and the TGI [47] was 5.88 µM. It also gave a TGI [48] of 27.4 µM, a TGI [49] of 4.42 µM and a TGI [50] of 39.1 µM. The TGI [51] was 4.68 µM, the TGI [59] was 4.97 µM and the TGI [53] was 4.02 µM. For the same compound, the TGI [55] was 14.7 µM, the TGI [56] was greater than 100 µM and the TGI [57] was 19.2 µM. The TGI [58] was 23.7 µM.
